Experimental findings from US6121330A, “5-Hydroxyalkyl substituted phenyls and their use in medicaments for the treatment of arteriosclerosis and hyperlipoproteinaemia” (Bayer Aktiengesellschaft, priority 1997, dated 2000) are described below.

The structures appear in SMILES notation.

For test [1], the target named is T1, cholesterol ester transfer protein (CETP) (Homo sapiens, UniProt P11597).
T1 construct: CETP is obtained from human plasma in partially purified form by differential centrifugation and column chromatography; from tissue; host or cells: human plasma
T1 sequence (P11597 18-493): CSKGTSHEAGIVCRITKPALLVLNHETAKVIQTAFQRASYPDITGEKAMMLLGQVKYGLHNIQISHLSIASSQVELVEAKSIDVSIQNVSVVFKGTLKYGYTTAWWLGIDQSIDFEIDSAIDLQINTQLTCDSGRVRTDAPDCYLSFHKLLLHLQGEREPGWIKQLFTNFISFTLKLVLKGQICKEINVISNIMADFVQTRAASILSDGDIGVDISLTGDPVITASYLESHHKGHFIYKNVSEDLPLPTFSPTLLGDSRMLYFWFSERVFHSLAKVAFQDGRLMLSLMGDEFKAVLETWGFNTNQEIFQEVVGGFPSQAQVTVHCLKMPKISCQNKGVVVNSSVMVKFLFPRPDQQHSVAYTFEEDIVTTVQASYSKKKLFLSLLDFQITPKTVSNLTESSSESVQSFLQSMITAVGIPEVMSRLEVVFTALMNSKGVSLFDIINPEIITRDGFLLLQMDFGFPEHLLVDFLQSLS
Put plainly: CETP inhibition testing (transfer of 3H-cholesterol ester from human HD lipoproteins to biotinylated LD lipoproteins). Format: biochemical. Particulars: CETP partially purified from human plasma; 3H-cholesterol ester transfer HDL to biotin-LDL, 37° C., 18 h. The protocol:
CETP is obtained from human plasma in partially purified form by differential centrifugation and column chromatography and used for the test. To this end, human plasma is adjusted to a density of 1.21 g per ml using NaBr and centrifuged at 4° C. for 18 h at 50,000 rpm. The bottom fraction (d>1.21 g/ml) is applied to a Sephadex®phenyl-sepharose 4B (Pharmacia) column, washed with 0.15 M NaCl/0.001 M trisHCl pH 7.4 and then eluted with distilled water. The CETP-active fractions are pooled, dialyzed against 50 mM Na acetate pH 4.5 and applied to a CM-Sepharose® (Pharmacia) column. The column is then eluted using a linear gradient (0-1 M NaCl). The pooled CETP fractions are dialyzed against 10 mM tris HCl pH 7.4 and then further purified by chromatography on a Mono Q® column (Pharmacia).
Obtainment of Radiolabelled HDL
50 ml of fresh human EDTA plasma is adjusted to a density of 1.12 using NaBr and centrifuged at 50,000 rpm for 18 h at 4° C. in a Ty 65 rotor. The upper phase is used to obtain cold LDL. The lower phase is dialyzed against 3×4 l of PDB buffer (10 mM tris/HCl pH 7.4, […], 1 mM EDTA, 0.02% NaN3). 20 μl of 3H-cholesterol (Dupont NET-725; 1 μC/μl dissolved in ethanol!) are then added per 10 ml of retentate volume and the mixture is incubated under N2 at 37° C. for 72 h. […]
To test the CETP activity, the transfer of ^3 H-cholesterol ester from human HD lipoproteins to biotinylated LD lipoproteins is measured.
The reaction is ended by addition of streptavidin-SPA® beads (Amersham) and the transferred radioactivity is determined directly in a liquid scintillation counter.
In the test mixture, 10 μl of HDL-^3 H-cholesterol ester (~50,000 cpm) are incubated at 37° C. for 18 h with 10 μl of biotin-LDL (Amersham) in 50 mM Hepes/0.15 M NaCl/0.1% bovine serum albumin/0.05% NaN3 pH 7.4 with 10 μl of CETP (1 mg/ml) and 3 μl of solution of the substance to be tested dissolved (in 10% DMSO/1% RSA). 200 μl of the SPA-streptavidin bead solution (TRKQ 7005) are then added, the mixture is incubated further for 1 h with shaking and then measured in the scintillation counter. […]

The next test has as its system HDL cholesterol. Put plainly: HDL rise in in vivo experiments (oral administration). Also noted: species or system Syrian golden hamster. Particulars: oral (stomach tube), 2 × 30 mg/kg/d. The method, then: In Vivo Activity of the Compounds According to the Invention
In experiments to determine the oral action on lipoproteins and triglycerides, test substance dissolved in DMSO and 0.5% Tylose suspended by means of a stomach tube are administered orally to Syrian golder hamsters from in-house breeding. To determine the CETP activity, blood (about 250 μl) is taken by retroorbital puncture before the start of the experiment. The test substances are then administered orally by means of a stomach tube. The control animals receive identical volumes of solvent without test substance. […]
Clotting is ended by incubation at 4° C. overnight, then centrifugation at 6000×g is carried out for 10 minutes. In the serum thus obtained, the content of cholesterol and triglycerides is determined with the aid of modified commercially available enzyme tests (cholesterol enzymatic 14366 Merck, triglycerides 14364 Merck). […]
100 μl of serum dilution are mixed with 100 μl of […] in 96-hole plates and incubated at room temperature for 10 minutes. The optical density is then determined at a wavelength of 492 nm using an automatic plate-reading apparatus. The triglyceride or cholesterol concentration contained in the samples is determined with the aid of a standard curve measured in parallel. […]

As usually defined, the IC50 is the concentration that inhibits the measured activity by half. Read a high IC50 as weaker potency in that assay. `OCc1c(-c2ccc(F)cc2)cc(C2CCCC2)c(C(F)c2ccc(C(F)(F)F)cc2)c1-c1ccc(F)cc1` (stereo not shown) [Example 1] returned an IC50 in test [1] of 90 nM.

As for `CC(C)c1cc(-c2ccc(F)cc2)c(CO)c(-c2ccc(F)cc2)c1C(F)c1ccc(C(F)(F)F)cc1` (stereo not shown) [Example 3], in the test with HDL cholesterol, the “% HDL rise” value was 21%. In test [1], this compound came in with an IC50 of 100 nM.

`CC(C)c1cc(-c2ccc(F)cc2)c(CO)c(-c2ccc(F)cc2)c1C(=O)c1ccc(C(F)(F)F)cc1` [Example 4] returned an IC50 in test [1] of 4000 nM.
